Assay results taken from paper PMC6271978, “1H-2,3-Dihydroperimidine Derivatives: A New Class of Potent Protein Tyrosine Phosphatase 1B Inhibitors” (Molecules, 2013).
Entries after “also recorded” stand apart in the source; their conditions may differ.

Tests used:
Format in all cases: biochemical
PTP1B (GST-PTP1B) = biological target: T1, PTP1B (GST-PTP1B) (Homo sapiens, UniProt P18031); test: PTP1B inhibition, colorimetric pNPP assay; settings: pNPP substrate
T1 sequence (P18031 1-435): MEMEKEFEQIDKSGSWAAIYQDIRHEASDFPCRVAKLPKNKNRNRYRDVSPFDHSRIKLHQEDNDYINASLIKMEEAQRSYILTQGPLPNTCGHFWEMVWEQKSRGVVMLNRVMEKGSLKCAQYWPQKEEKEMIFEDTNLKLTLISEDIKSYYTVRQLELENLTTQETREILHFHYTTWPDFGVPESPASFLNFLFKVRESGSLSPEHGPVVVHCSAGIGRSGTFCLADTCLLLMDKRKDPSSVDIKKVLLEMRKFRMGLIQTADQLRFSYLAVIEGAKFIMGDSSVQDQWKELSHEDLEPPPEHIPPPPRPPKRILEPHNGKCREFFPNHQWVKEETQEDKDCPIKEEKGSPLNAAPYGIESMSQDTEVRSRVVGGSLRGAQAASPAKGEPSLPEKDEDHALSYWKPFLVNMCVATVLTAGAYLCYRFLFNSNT

SHP-1 = biological target: T2, SHP-1 (Homo sapiens, UniProt P29350); test: SHP-1 inhibition, OMFP substrate assay
T2 construct: made in house
T2 sequence (P29350 whole entry): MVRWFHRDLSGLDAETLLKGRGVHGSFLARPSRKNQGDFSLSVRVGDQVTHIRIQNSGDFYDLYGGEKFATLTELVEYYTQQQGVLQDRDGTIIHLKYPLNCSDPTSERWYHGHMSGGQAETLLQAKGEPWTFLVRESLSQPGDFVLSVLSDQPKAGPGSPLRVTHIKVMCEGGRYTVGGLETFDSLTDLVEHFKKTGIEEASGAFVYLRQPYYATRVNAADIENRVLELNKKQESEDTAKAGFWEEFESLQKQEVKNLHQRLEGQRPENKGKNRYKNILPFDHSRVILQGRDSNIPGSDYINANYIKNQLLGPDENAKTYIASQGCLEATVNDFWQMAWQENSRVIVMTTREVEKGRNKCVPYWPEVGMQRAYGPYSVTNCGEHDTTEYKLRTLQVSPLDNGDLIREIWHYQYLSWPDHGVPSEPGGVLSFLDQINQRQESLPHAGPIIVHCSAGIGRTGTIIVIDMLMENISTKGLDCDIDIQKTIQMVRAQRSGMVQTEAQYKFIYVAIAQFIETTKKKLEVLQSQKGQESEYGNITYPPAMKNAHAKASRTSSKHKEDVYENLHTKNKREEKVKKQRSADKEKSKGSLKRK
Protocol: (§1) In addition to potency improvements, we investigated the selectivity of three representative compounds, namely, 1, 46 and 49 against other PTPs (TCPTP, SHP-1, SHP-2, LAR). […] Besides TCPTP, we tested the inhibitory activity of these compounds on other three homogenous enzymes SHP-1, SHP-2, and LAR [25].
(§2) A colorimetric assay to measure inhibition against PTP1B and TCPTP was performed in 96-well plates. Briefly, the tested compounds were solubilized in DMSO and serially diluted into concentrations for the inhibitory test. The assays were carried out in a final volume of 100 μL containing 50 mmol/L MOPS, pH 6.5, 2 mmol/L pNPP, 30 nmol/L GST-PTP1B or GST-TCPTP,and 2% DMSO, and the catalysis of pNPP was continuously monitored on a SpectraMax 340 microplate reader at 405 nm for 3 min at 30 °C. The IC50 value was calculated from the nonlinear curve fitting of the percent inhibition [inhibition (%)] vs. the inhibitor concentration using the Equation (1): Inhibition (%) = 100/[1 + (IC50/[I]k)] (1) where k is the Hill coefficient. To study the inhibition on the other PTPase family members, SHP1, SHP2 and LAR were prepared and assays were performed according to procedures described previously. Briefly, the enzymatic activity of the SHP1, SHP2 and LARwere determined at 30 °C by monitoring the dephosphorylation of substrate 3-o-methylfluorescein phosphate (OMFP), product was then detected at a 485 nm excitation wavelength and 530 nm emission wavelength by the EnVision multilabe plate reader (Perkin-Elmer Life Sciences, Boston, MA, USA). The assays were carried out in a final volume of 50 μL containing 50 mmol/L MOPS, pH 6.8, 10 μmol/L OMFP, 20 nmol/L recombinant enzyme, 2 mmol/L dithiothreitol , 1 mmol/L EDTA, and 2% DMSO. The initial rate of the dephosphorylation was presented by the early linear region of the enzymatic reaction kinetic curve, the inhibitory activity of the compound was continuously monitored.

PTP1B = biological target: T3, PTP1B (Homo sapiens, UniProt P18031); test: Enzyme kinetics: fast-binding and inhibition modality on PTP1B
T3 sequence (P18031 1-435): T1 sequence (P18031 1-435)
Protocol: A kinetic study was performed in order to identify the inhibitory mechanism of compound 46 (Figure 2), using the reported enzyme kinetics assays.
To characterize the inhibitor of PTP1B, the assay was carried out in a 100 μL system containing 50 mmol/L MOPS, pH 6.5, 14 nmol/L PTP1B, pNPP in 2-fold dilution from 80 mmol/L, and different concentrations of the inhibitor. […] (2) where Km is the Michaelis constant, v is the initial rate, Vmax is the maximum rate, and [S] is the substrate concentration. The Ki value was obtained by the linear replot of apparent Km/Vmax (slope) from the primary reciprocal plot versus the inhibitor concentration [I] according to the equation Km/Vmax = 1 + [I]/Ki.

TCPTP (GST-TCPTP) = biological target: T4, TCPTP (GST-TCPTP) (Homo sapiens, UniProt P17706); test: TCPTP inhibition, colorimetric pNPP assay
T4 sequence (P17706 1-415): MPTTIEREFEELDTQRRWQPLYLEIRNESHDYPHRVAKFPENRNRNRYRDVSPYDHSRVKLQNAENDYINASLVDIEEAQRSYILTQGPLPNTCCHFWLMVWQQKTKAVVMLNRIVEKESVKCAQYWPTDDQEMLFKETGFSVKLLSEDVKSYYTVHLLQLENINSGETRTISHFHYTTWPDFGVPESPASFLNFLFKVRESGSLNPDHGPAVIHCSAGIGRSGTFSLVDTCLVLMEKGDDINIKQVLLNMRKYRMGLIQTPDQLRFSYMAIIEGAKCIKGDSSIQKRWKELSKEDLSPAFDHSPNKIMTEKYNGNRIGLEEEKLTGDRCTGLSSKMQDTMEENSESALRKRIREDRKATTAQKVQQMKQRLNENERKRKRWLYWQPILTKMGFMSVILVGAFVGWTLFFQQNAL
Protocol: as §1, §2

[1] = means ± SD of three replications, OA/PC = oleanolic acid positive control

O=C(O)CNC(=O)c1ccc(C2Nc3cccc4cccc(c34)N2)nc1 [Compound 46]
inhibition at 20 µg/mL (PTP1B (GST-PTP1B); PTP1B, compound at 20 μg/mL): 99.5% | IC50 (PTP1B (GST-PTP1B); [1]): 660 ± 30 nM | IC50 PTP1B (PTP1B (GST-PTP1B); [1]): submicromolar | IC50 (SHP-1; OMFP substrate, means ± SD of three replications, PC = Na3VO4): 6010 ± 200 nM | selectivity for PTP1B over SHP-1 (SHP-1; from IC50 values): about 9 fold | inhibition modality toward PTP1B (PTP1B; Lineweaver-Burk plot, increased Km, unchanged Vmax, pNPP substrate): competitive inhibitor; also recorded: Typical competitive inhibition | binding behaviour of inhibition of PTP1B (time dependence) (PTP1B; preincubation of PTP1B with compound on ice for different times): fast-binding inhibition | IC50 (TCPTP (GST-TCPTP); pNPP substrate, means ± SD of three replications, PC = oleanolic acid): 2300 ± 170 nM | TCPTP/PTP1B (selectivity, fold) (TCPTP (GST-TCPTP); ratio of IC50 TCPTP to IC50 PTP1B): 3.48
